Our source for the IC50 values is patent publication US12331068B2, “Compositions and methods for inhibiting CD73” (Peloton Therapeutics, Inc., priority 2018, dated 2025).

Read-outs that look alike come from different tables or passages of the source. A value given as a limit tells only on which side of the number the result lay.

One assay addresses T1, Human CD73 (Homo sapiens, UniProt P21589).
T1 construct: purchased R&D Systems; host or cells: CHO cells
T1 sequence (P21589 27-549): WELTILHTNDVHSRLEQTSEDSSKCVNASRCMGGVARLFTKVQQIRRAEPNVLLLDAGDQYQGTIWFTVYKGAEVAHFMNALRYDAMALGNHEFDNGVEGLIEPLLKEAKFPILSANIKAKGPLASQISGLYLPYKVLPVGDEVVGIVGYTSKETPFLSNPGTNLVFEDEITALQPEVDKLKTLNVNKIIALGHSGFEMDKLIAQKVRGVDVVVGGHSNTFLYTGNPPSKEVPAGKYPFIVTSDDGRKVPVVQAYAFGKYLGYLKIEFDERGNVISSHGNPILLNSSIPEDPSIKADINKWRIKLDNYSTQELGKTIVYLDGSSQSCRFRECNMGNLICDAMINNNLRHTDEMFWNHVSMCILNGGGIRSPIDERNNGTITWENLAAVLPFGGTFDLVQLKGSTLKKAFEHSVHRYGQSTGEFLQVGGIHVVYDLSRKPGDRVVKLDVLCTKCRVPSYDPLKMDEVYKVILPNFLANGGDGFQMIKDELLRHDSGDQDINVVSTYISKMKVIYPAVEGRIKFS
Kind of assay: CD73 Enzyme Assay (EnzChek PNP/MESG kinetic readout of AMP hydrolysis). In kind it is biochemical. Particulars: 0.25 nM hCD73, 25 μM AMP; read-out: CD73 Enzyme Assay IC50. The essentials:
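Compounds tested as 15-point, 3-fold dilution series (300 μM to 0.0002 μM) in DMSO. Kinetic absorbance at 360 nm read every minute for 10–20 min, initial velocity taken from the linear portion.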

Assay [1] deals with T2, CD73 on U138 human neuroglioma cells (Homo sapiens, UniProt P21589).
T2 construct: U138 cells were obtained from ATCC and cultured in DMEM with 10% FBS; host or cells: U138 human neuroglioma cells
T2 sequence (P21589 27-549): T1 sequence (P21589 27-549)
Kind of assay: CD73 Cell-Based Assay (inorganic phosphate from AMP, malachite green). Particulars: AMP substrate, 2 hours at 37° C. The essentials:
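U138 cells, seeded the day before at 2500 per well, were washed and given AMP substrate (200 μM in the added mixture, before dilution into the buffer) together with compound. After 2 h at 37 °C in 5% CO2, inorganic phosphate in the supernatant was measured with malachite green.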

Where [2] appears, read: read-out: CD73 Cell-Based assay IC50.

Regarding `C[C@@H](Nc1c(C#N)c(Cl)nc2c1cnn2[C@@H]1O[C@H](COP(=O)(O)CP(=O)(O)O)[C@@H](O)[C@H]1O)c1ccccc1F` [Compound 248], the IC50 (at Human CD73; in assay [1] (setting [2])) was below 0.01 µM throughout.
For the molecule `N#Cc1c(Cl)nc2c(cnn2[C@@H]2O[C@H](CS(=O)(=O)CP(=O)(O)O)[C@@H](O)[C@H]2O)c1N[C@H]1C[C@H](F)C1` [Compound 144, (((((2S,3S,4R,5R)-5-(6-chloro-5-cyano-4-(((1r,3R)-3-fluorocyclobutyl)amino)-1H-pyrazolo[3,4-b]pyridin-1-yl)-3,4-dihydroxytetrahydrofuran-2-yl)methyl)sulfonyl)methyl)phosphonic acid], the IC50 (on Human CD73; in assay [1] (setting [2])) was below 0.01 µM each time.
`N#Cc1c(Cl)nc2c(ncn2[C@@H]2O[C@H](COCP(=O)(O)O)[C@@H](O)[C@H]2O)c1N1C[C@@H](F)[C@@H](F)C1` [Compound 92, ((((2R,3S,4R,5R)-5-(5-chloro-6-cyano-7-((3S,4R)-3,4-difluoropyrrolidin-1-yl)-3H-imidazo[4,5-b]pyridin-3-yl)-3,4-dihydroxytetrahydrofuran-2-yl)methoxy)methyl)phosphonic acid]: the IC50 (on Human CD73; in assay [1] (setting [2])) was below 0.01 µM throughout.
Turning to `C[C@H](Nc1c(C#N)c(Cl)nc2c1cnn2[C@@H]1O[C@H](COP(=O)(O)CP(=O)(O)O)[C@@H](O)[C@H]1O)c1ccc(C#N)cc1` [Compound 243], the IC50 (at Human CD73; in assay [1] (setting [2])) was below 0.01 µM each time.
For `N#Cc1c(Cl)nc2c(cnn2[C@@H]2O[C@H](COCP(=O)(O)O)[C@@H](O)[C@H]2O)c1N1CC[C@H](F)C1` [Compound 79], the IC50 (at Human CD73; in assay [1] (setting [2])) was below 0.01 µM throughout.
Regarding `C[C@H](Nc1c(C#N)c(Cl)nc2c1ccn2[C@@H]1O[C@H](CS(=O)(=O)CP(=O)(O)O)[C@@H](O)[C@H]1O)c1cccc(C#N)c1` [Compound 190], the IC50 (on Human CD73; in assay [1] (setting [2])) was below 0.01 µM in each case.
Regarding `C[C@H](Nc1c(C#N)c(Cl)nc2c1ncn2[C@@H]1O[C@H](COP(=O)(O)CP(=O)(O)O)[C@@H](O)[C@H]1O)c1ccccc1F` [Compound 242], the IC50 (at Human CD73; in assay [1] (setting [2])) was below 0.01 µM each time.
Take `N#Cc1c(Cl)nc2c(c(F)cn2[C@@H]2O[C@H](CS(=O)(=O)CP(=O)(O)O)[C@@H](O)[C@H]2O)c1NC1CC(F)(F)C1` [Compound 162]: the IC50 (at Human CD73; in assay [1] (setting [2])) was below 0.01 µM each time.
With `N#Cc1nc2c(ccn2[C@@H]2O[C@H](CS(=O)(=O)CP(=O)(O)O)[C@@H](O)[C@H]2O)c(NC2CC(F)(F)C2)c1Cl` [Compound 142], the IC50 (on Human CD73; in assay [1] (setting [2])) was below 0.01 µM in each case.
On to `N#Cc1c(Cl)nc2c(cnn2[C@@H]2O[C@H](COP(=O)(O)CP(=O)(O)O)[C@@H](O)[C@H]2O)c1N1CC2CC2C1` (stereo partly shown) [Compound 72], for which the IC50 (at Human CD73; in assay [1] (setting [2])) was below 0.01 µM each time.
For `N#Cc1c(Cl)nc2c(cnn2[C@@H]2O[C@H](CS(=O)(=O)CP(=O)(O)O)[C@@H](O)[C@H]2O)c1NC1CCC(F)(F)CC1` [Compound 130], the IC50 (on Human CD73; in assay [1] (setting [2])) was below 0.01 µM throughout.
`N#Cc1c(Cl)nc2c(ccn2[C@@H]2O[C@H](COP(=O)(O)CP(=O)(O)O)[C@@H](O)[C@H]2O)c1N1CC2CCCC2C1` (stereo partly shown) [Compound 43]: the IC50 (on Human CD73; in assay [1] (setting [2])) was below 0.01 µM in each case.
`C[C@H](Nc1c(C#N)c(Cl)nc2c1ncn2[C@@H]1O[C@H](COP(=O)(O)CP(=O)(O)O)[C@@H](O)[C@@H]1F)c1ccc(F)cc1` [Compound 245]: the IC50 (at Human CD73; in assay [1] (setting [2])) was below 0.01 µM throughout.
On to `N#Cc1c(Cl)nc2c(ccn2[C@@H]2O[C@H](CS(=O)(=O)CP(=O)(O)O)[C@@H](O)[C@H]2O)c1N[C@H]1C[C@H](F)C1` [Compound 76, (((((2S,3S,4R,5R)-5-(6-chloro-5-cyano-4-(((1r,3R)-3-fluorocyclobutyl)amino)-1H-pyrrolo[2,3-b]pyridin-1-yl)-3,4-dihydroxytetrahydrofuran-2-yl)methyl)sulfonyl)methyl)phosphonic acid], for which the IC50 (at Human CD73; in assay [1] (setting [2])) was below 0.01 µM throughout.
In the case of `N#Cc1c(Cl)nc2c(cnn2[C@@H]2O[C@H](COCP(=O)(O)O)[C@@H](O)[C@H]2O)c1N1CC[C@@H](F)C1` [Compound 90], the IC50 (on Human CD73; in assay [1] (setting [2])) was below 0.01 µM throughout.
With `C[C@H](Nc1c(C#N)c(Cl)nc2c1ncn2[C@@H]1O[C@H](COP(=O)(O)CP(=O)(O)O)[C@@H](O)[C@H]1O)c1ccc(C#N)cc1` [Compound 227], the IC50 (at Human CD73; in assay [1] (setting [2])) was below 0.01 µM each time.
In the case of `N#Cc1c(Cl)nc2c(cnn2[C@@H]2O[C@H](COCP(=O)(O)O)[C@@H](O)[C@H]2O)c1NC1CCCC1` [Compound 69, ((((2R,3S,4R,5R)-5-(6-chloro-5-cyano-4-(cyclopentylamino)-1H-pyrazolo[3,4-b]pyridin-1-yl)-3,4-dihydroxytetrahydrofuran-2-yl)methoxy)methyl)phosphonic acid], the IC50 (on Human CD73; in assay [1] (setting [2])) was below 0.01 µM throughout.
As to `N#Cc1c(Cl)nc2c(ccn2[C@@H]2O[C@H](COCP(=O)(O)O)[C@@H](O)[C@H]2O)c1N1CC2CC2C1` (stereo partly shown) [Compound 12], the IC50 (on Human CD73; in assay [1] (setting [2])) was below 0.01 µM throughout.
Regarding `CN(c1c(C#N)c(Cl)nc2c1ccn2[C@@H]1O[C@H](CS(=O)(=O)CP(=O)(O)O)[C@@H](O)[C@H]1O)C1CC(F)(F)C1` [Compound 154], the IC50 (on Human CD73; in assay [1] (setting [2])) was below 0.01 µM in each case.
Consider `N#Cc1c(Cl)nc2c(ncn2[C@@H]2O[C@H](COCP(=O)(O)O)[C@@H](O)[C@H]2O)c1N1CC[C@H](F)C1` [Compound 84], for which the IC50 (at Human CD73; in assay [1] (setting [2])) was below 0.01 µM each time.
For the molecule `N#Cc1c(Cl)nc2c(ccn2[C@@H]2O[C@H](COP(=O)(O)CP(=O)(O)O)[C@@H](O)[C@H]2O)c1N1CC2CC2C1` (stereo partly shown) [Compound 29], the IC50 (on Human CD73; in assay [1] (setting [2])) was below 0.01 µM each time.
As for `N#Cc1c(Cl)nc2c(c(F)cn2[C@@H]2O[C@H](CS(=O)(=O)CP(=O)(O)O)[C@@H](O)[C@H]2O)c1N1CCC(F)(F)C1` [Compound 152], the IC50 – broadly, the point on the concentration scale where inhibition reaches its midpoint – on Human CD73 is below 0.01 µM; in assay [1] (setting [2]), above 0.1 µM.
The matching figures for `N#Cc1c(Cl)nc2c(ccn2[C@@H]2O[C@H](COCP(=O)(O)O)[C@@H](O)[C@H]2O)c1N1CC2CCCC2C1` (stereo partly shown) [Compound 11]: below 0.01 µM and below 0.01 µM.
The matching figures for `C[C@@H](Nc1c(C#N)c(Cl)nc2c1ccn2[C@@H]1O[C@H](COP(=O)(O)CP(=O)(O)O)[C@@H](O)[C@@H]1F)c1ccc(F)cc1` [Compound 229]: below 0.01 µM and below 0.01 µM.
The matching figures for `N#Cc1c(Cl)nc2c(ncn2[C@@H]2O[C@H](CS(=O)(=O)CP(=O)(O)O)[C@@H](O)[C@H]2O)c1N[C@H]1C[C@H](F)C1` [Compound 136]: 0.01 to 0.1 µM and below 0.01 µM.
For the molecule `N#Cc1c(Cl)nc2c(ncn2[C@@H]2O[C@H](CS(=O)(=O)CP(=O)(O)O)[C@@H](O)[C@H]2O)c1NC1CCC(F)(F)CC1` [Compound 126], the IC50 (on Human CD73; in assay [1] (setting [2])) was below 0.01 µM in each case.
Take `N#Cc1nc2c(ccn2[C@@H]2O[C@H](CS(=O)(=O)CP(=O)(O)O)[C@@H](O)[C@H]2O)c(N2C[C@@H](F)[C@@H](F)C2)c1Cl` [Compound 138]: the IC50 on Human CD73 is 0.01 to 0.1 µM; in assay [1] (setting [2]), below 0.01 µM.
In the case of `C[C@@H](Nc1c(C#N)c(Cl)nc2c1cnn2[C@@H]1O[C@H](CS(=O)(=O)CP(=O)(O)O)[C@@H](O)[C@H]1O)c1cccc(F)c1` [Compound 182], the IC50 (on Human CD73; in assay [1] (setting [2])) was below 0.01 µM each time.
For the molecule `N#Cc1c(Cl)nc2c(cnn2[C@@H]2O[C@H](COCP(=O)(O)O)[C@@H](O)[C@H]2O)c1NC1CC(F)C1` (stereo partly shown) [Compound 89], the IC50 (on Human CD73; in assay [1] (setting [2])) was below 0.01 µM throughout.
In the case of `N#Cc1c(Cl)nc2c(ccn2[C@@H]2O[C@H](COP(=O)(O)CP(=O)(O)O)[C@@H](O)[C@H]2O)c1NC1CCC1` [Compound 36], the IC50 (at Human CD73; in assay [1] (setting [2])) was below 0.01 µM each time.
Regarding `N#Cc1c(Cl)nc2c(ccn2[C@@H]2O[C@H](COCP(=O)(O)O)[C@@H](O)[C@H]2O)c1N1CC[C@H](F)C1` [Compound 60], the IC50 (on Human CD73; in assay [1] (setting [2])) was below 0.01 µM throughout.
For `N#Cc1c(Cl)nc2c(ncn2[C@@H]2O[C@H](COP(=O)(O)CP(=O)(O)O)[C@@H](O)[C@H]2O)c1N1CC2CC2C1` (stereo partly shown) [Compound 63], the IC50 (at Human CD73; in assay [1] (setting [2])) was below 0.01 µM in each case.
For `O=P(O)(O)CS(=O)(=O)C[C@H]1O[C@@H](n2ccc3c(NC4CCCC4)cc(Cl)nc32)[C@H](O)[C@@H]1O` [Compound 323], the IC50 on Human CD73 is below 0.01 µM; in assay [1] (setting [2]), below 0.01 µM; in assay [1] (read-out: IC50), 0.0014 µM.
